Source: patent US20200190081A1, “META SUBSTITUTED PHENYLPYRAZOLO- AND PHENYLPYRROLO- PYRIDAZINE DERIVATIVES HAVING MULTIMODAL ACTIVITY AGAINST PAIN” (ESTEVE PHARMACEUTICALS, S.A., priority 2016, published 2020)

How the values were obtained:
[1] = target: Human norepinephrine transporter (NET) (Homo sapiens, UniProt P23975); assay: Binding assay to human norepinephrine transporter (NET), [3H]-Nisoxetin; conditions: human NET enriched membranes, 5 nM [3H]-Nisoxetin
Description: Binding Assay to Human Norepinephrine Transporter (NET).
Human norepinephrine transporter (NET) enriched membranes (5 μg) were incubated with 5 nM of radiolabeled [3H]-Nisoxetin in assay buffer containing 50 mM Tris-HCl, 120 mM NaCl, 5 mM KCl, pH 7.4. NSB (non specific binding) was measured by adding 10 μM of desipramine. The binding of the test compound was measured at five different concentrations. After 60 min incubation at 4° C., binding reaction was terminated by filtering through Multiscreen GF/C (Millipore) presoaked in 0.5% polyethyleneimine in Vacuum Manifold Station, followed by 3 washes with ice-cold filtration buffer containing 50 mM Tris-HCl, 0.9% NaCl, pH 7.4. Filter plates were dried at 60° C. for 1 hour and 30 μl of scintillation cocktail were added to each well before radioactivity reading. Readings were performed in a Trilux 1450 Microbeta radioactive counter (Perkin Elmer).

[2] = target: Human α2δ-1 Subunit of Cav2.2 Calcium Channel (Homo sapiens, UniProt P54289); assay: Human α2δ-1 subunit of Cav2.2 calcium channel assay, [3H]-Gabapentin binding; conditions: human α2δ-1 enriched membranes, 15 nM [3H]-Gabapentin
Description: Human α2δ-1 Subunit of Cav2.2 Calcium Channel Assay
Human α2δ-1 enriched membranes (2.5 μg) were incubated with 15 nM of radiolabeled [3H]-Gabapentin in assay buffer containing Hepes-KOH 10 mM, pH 7.4. NSB (non specific binding) was measured by adding 10 μM pregabalin. The binding of the test compound was measured at five different concentrations. After 60 min incubation at 27° C., binding reaction was terminated by filtering through Multiscreen GF/C (Millipore) presoaked in 0.5% polyethyleneimine in Vacuum Manifold Station, followed by 3 washes with ice-cold filtration buffer containing 50 mM Tris-HCl, pH 7.4. Filter plates were dried at 60° C. for 1 hour and 30 μl of scintillation cocktail were added to each well before radioactivity reading. Readings were performed in a Trilux 1450 Microbeta radioactive counter (Perkin Elmer).

Chain of Human norepinephrine transporter (NET) (P23975 whole entry): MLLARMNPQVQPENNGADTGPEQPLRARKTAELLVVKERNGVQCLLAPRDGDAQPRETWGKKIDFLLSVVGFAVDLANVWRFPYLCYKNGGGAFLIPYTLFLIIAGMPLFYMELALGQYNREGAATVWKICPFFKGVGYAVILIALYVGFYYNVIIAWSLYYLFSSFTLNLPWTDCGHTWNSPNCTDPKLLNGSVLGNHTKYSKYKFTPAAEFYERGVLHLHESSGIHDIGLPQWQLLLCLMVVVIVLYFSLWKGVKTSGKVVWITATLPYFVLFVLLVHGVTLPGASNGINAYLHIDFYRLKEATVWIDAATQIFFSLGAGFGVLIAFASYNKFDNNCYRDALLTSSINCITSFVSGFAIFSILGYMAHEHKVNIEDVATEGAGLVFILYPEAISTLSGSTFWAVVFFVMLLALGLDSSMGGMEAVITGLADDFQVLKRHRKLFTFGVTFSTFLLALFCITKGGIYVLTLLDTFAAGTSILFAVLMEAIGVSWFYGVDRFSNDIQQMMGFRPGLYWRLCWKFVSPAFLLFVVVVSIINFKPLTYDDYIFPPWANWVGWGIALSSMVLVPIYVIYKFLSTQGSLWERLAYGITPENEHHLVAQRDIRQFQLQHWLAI
Chain of Human α2δ-1 Subunit of Cav2.2 Calcium Channel (P54289 25-1103): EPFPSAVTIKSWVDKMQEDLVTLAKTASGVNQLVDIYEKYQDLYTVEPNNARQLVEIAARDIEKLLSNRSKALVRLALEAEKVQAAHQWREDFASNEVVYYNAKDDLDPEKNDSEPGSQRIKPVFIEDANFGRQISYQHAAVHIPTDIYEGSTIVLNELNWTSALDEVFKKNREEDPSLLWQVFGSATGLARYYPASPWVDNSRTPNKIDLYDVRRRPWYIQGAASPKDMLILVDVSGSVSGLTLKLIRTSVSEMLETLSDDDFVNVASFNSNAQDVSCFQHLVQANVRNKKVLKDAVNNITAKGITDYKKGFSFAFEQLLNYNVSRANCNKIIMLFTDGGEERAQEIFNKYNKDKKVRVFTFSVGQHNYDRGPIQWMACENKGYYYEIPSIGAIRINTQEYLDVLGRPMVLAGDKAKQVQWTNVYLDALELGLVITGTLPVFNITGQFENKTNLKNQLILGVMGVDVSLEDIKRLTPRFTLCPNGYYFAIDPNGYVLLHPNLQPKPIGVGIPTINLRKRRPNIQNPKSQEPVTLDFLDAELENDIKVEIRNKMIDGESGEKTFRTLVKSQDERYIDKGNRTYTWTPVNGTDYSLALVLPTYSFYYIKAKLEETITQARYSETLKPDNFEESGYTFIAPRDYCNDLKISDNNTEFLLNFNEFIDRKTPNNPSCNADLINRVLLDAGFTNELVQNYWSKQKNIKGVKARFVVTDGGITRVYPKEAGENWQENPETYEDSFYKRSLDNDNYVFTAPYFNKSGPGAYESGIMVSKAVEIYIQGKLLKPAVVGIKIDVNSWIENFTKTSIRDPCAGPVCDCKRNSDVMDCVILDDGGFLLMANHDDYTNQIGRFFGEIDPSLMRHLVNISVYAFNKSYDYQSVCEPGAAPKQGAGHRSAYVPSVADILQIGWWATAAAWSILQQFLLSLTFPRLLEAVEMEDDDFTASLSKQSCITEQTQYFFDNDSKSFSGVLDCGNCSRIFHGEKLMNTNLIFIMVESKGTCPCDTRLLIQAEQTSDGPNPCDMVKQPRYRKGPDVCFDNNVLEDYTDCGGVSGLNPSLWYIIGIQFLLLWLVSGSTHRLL

Ki [1]	Ki [2]	Compound
100 to 500 nM	500 to 5000 nM	Cc1nnc(N(C)C)c2nn(-c3cccc(OCC4CCN(CCc5ccccc5)CC4)c3)c(C)c12 [Example 53, N,N,3,4-Tetramethyl-2-(3-((1-phenethylpiperidin-4-yl)methoxy)phenyl)-2H-pyrazolo[3,4-d]pyridazin-7-amine]
100 to 500 nM	500 to 5000 nM	CNCCC(Oc1cccc(-n2nc3c(N)nnc(C)c3c2C)c1)c1ccccc1F (centres unmarked) [Example 26, 2-(3-(1-(2-fluorophenyl)-3-(methylamino)propoxy)phenyl)-3,4-dimethyl-2H-pyrazolo[3,4-d]pyridazin-7-amine]
< 100 nM	500 to 5000 nM	CNCCC(Oc1cccc(-n2nc3c(N(C)C)nnc(C)c3c2C)c1)c1ccccc1F (centres unmarked) [Example 30, 2-(3-(1-(2-Fluorophenyl)-3-(methylamino)propoxy)phenyl)-N,N,3,4-tetramethyl-2H-pyrazolo[3,4-d]pyridazin-7-amine]
< 100 nM	500 to 5000 nM	CNCCC(Oc1cccc(-n2nc3c(N(C)C)nnc(C)c3c2C)c1)c1ccncc1 (centres unmarked) [Example 10, N,N,3,4-tetramethyl-2-(3-(3-(methylamino)-1-(pyridin-4-yl)propoxy)phenyl)-2H-pyrazolo[3,4-d]pyridazin-7-amine]
500 to 1000 nM	< 500 nM	CNCCC(Oc1cccc(-n2nc3c(N(C)C)nnc(C)c3c2C)c1)c1cncs1 (centres unmarked) [Example 48, N,N,3,4-tetramethyl-2-(3-(3-(methylamino)-1-(thiazol-5-yl)propoxy)phenyl)-2H-pyrazolo[3,4-d]pyridazin-7-amine]
100 to 500 nM	500 to 5000 nM	Cc1nnc(N(C)C)c2nn(-c3cccc(O[C@H](c4ccccc4)[C@@H]4CNCCO4)c3)c(C)c12 (racemic) [Example 12, N,N,3,4-tetramethyl-2-(3-((R)-((S)-morpholin-2-yl)(phenyl)methoxy)phenyl)-2H-pyrazolo[3,4-d]pyridazin-7-amine]
100 to 500 nM	500 to 5000 nM	CNCCC(Oc1cccc(-n2nc3c(N(C)C)nnc(C)c3c2C)c1)c1ccccn1 (centres unmarked) [Example 9, N,N,3,4-tetramethyl-2-(3-(3-(methylamino)-1-(pyridin-2-yl)propoxy)phenyl)-2H-pyrazolo[3,4-d]pyridazin-7-amine]
< 100 nM	500 to 5000 nM	CNC(COc1cccc(-n2nc3c(N(C)C)nnc(C)c3c2C)c1)c1ccccc1 (centres unmarked) [Example 15, N,N,3,4-tetramethyl-2-(3-(2-(methylamino)-2-phenylethoxy)phenyl)-2H-pyrazolo[3,4-d]pyridazin-7-amine]
100 to 500 nM	500 to 5000 nM	Cc1nnc(N(C)C)c2nn(-c3cccc(OC(CCN)c4cccc(F)c4)c3)c(C)c12 (centres unmarked) [Example 21, 2-(3-(3-amino-1-(3-fluorophenyl)propoxy)phenyl)-N,N,3,4-tetramethyl-2H-pyrazolo[3,4-d]pyridazin-7-amine]
100 to 500 nM	500 to 5000 nM	CCNCCC(Oc1cccc(-n2nc3c(N(C)C)nnc(C)c3c2C)c1)c1ccccc1 (centres unmarked) [Example 3, 2-(3-(3-(ethylamino)-1-phenylpropoxy)phenyl)-N,N,3,4-tetramethyl-2H-pyrazolo[3,4-d]pyridazin-7-amine]
100 to 500 nM	500 to 5000 nM	Cc1nnc(N(C)C)c2nn(-c3cccc(OC(CCN)c4ccccc4)c3)c(C)c12 (centres unmarked) [Example 4, 2-(3-(3-amino-1-phenylpropoxy)phenyl)-N,N,3,4-tetramethyl-2H-pyrazolo[3,4-d]pyridazin-7-amine]
100 to 500 nM	< 500 nM	CNCC[C@H](Oc1cccc(-n2nc3c(N(C)C)nnc(C)c3c2C)c1)c1cccnc1 [Example 64, (S)-N,N,3,4-tetramethyl-2-(3-(3-(methylamino)-1-(pyridin-3-yl)propoxy)phenyl)-2H-pyrazolo[3,4-d]pyridazin-7-amine]
< 100 nM	500 to 5000 nM	CNCCC(Oc1cccc(-n2nc3c(N(C)C)nnc(C)c3c2C)c1)c1cccc(OC)c1 (centres unmarked) [Example 39, 2-(3-(1-(3-methoxyphenyl)-3-(methylamino)propoxy)phenyl)-N,N,3,4-tetramethyl-2H-pyrazolo[3,4-d]pyridazin-7-amine]
500 to 1000 nM	500 to 5000 nM	Cc1nnc(N(C)C)c2nn(-c3cccc(O[C@@H](c4ccccc4)[C@@H]4CNCCO4)c3)c(C)c12 (racemic) [Example 13, N,N,3,4-tetramethyl-2-(3-((S)-((S)-morpholin-2-yl)(phenyl)methoxy)phenyl)-2H-pyrazolo[3,4-d]pyridazin-7-amine]
100 to 500 nM	500 to 5000 nM	CNCC[C@@H](Oc1cccc(-n2nc3c(N(C)C)nnc(C)c3c2C)c1)c1ccccc1 [Example 59, (R)-N,N,3,4-tetramethyl-2-(3-(3-(methylamino)-1-phenylpropoxy)phenyl)-2H-pyrazolo[3,4-d]pyridazin-7-amine]
100 to 500 nM	500 to 5000 nM	Cc1nnc(N(C)C)c2nn(-c3cccc(OC(CCN)c4ccc(F)cc4)c3)c(C)c12 (centres unmarked) [Example 20, 2-(3-(3-amino-1-(4-fluorophenyl)propoxy)phenyl)-N,N,3,4-tetramethyl-2H-pyrazolo[3,4-d]pyridazin-7-amine]
500 to 1000 nM	500 to 5000 nM	CNCC(Oc1cccc(-n2nc3c(N(C)C)nnc(C)c3c2C)c1)c1cccs1 (centres unmarked) [Example 40, N,N,3,4-tetramethyl-2-(3-(2-(methylamino)-1-(thiophen-2-yl)ethoxy)phenyl)-2H-pyrazolo[3,4-d]pyridazin-7-amine]
< 100 nM	500 to 5000 nM	CNCC[C@H](Oc1cccc(-n2nc3c(N(C)C)nnc(C)c3c2C)c1)c1ccccc1F [Example 63, (S)-2-(3-(1-(2-fluorophenyl)-3-(methylamino)propoxy)phenyl)-N,N,3,4-tetramethyl-2H-pyrazolo[3,4-d]pyridazin-7-amine]
≥ 1000 nM	< 500 nM	CNCCC(Oc1cccc(-n2nc3c(N(C)C)nnc(C)c3c2C)c1)c1nccs1 (centres unmarked) [Example 34, N,N,3,4-Tetramethyl-2-(3-(3-(methylamino)-1-(thiazol-2-yl)propoxy)phenyl)-2H-pyrazolo[3,4-d]pyridazin-7-amine]
< 100 nM	500 to 5000 nM	CNC[C@@H](Oc1cccc(-n2nc3c(N(C)C)nnc(C)c3c2C)c1)c1ccccc1 [Example 61, (S)-N,N,3,4-tetramethyl-2-(3-(2-(methylamino)-1-phenylethoxy)phenyl)-2H-pyrazolo[3,4-d]pyridazin-7-amine]
< 100 nM	500 to 5000 nM	CNCC[C@@H](Oc1cccc(-n2nc3c(N(C)C)nnc(C)c3c2C)c1)c1ccccc1F [Example 62, (R)-2-(3-(1-(2-Fluorophenyl)-3-(methylamino)propoxy)phenyl)-N,N,3,4-tetramethyl-2H-pyrazolo[3,4-d]pyridazin-7-amine]
100 to 500 nM	500 to 5000 nM	Cc1nnc(N(C)C)c2nn(-c3cccc(OC(CCN(C)C)c4ccccc4)c3)c(C)c12 (centres unmarked) [Example 2, 2-(3-(3-(dimethylamino)-1-phenylpropoxy)phenyl)-N,N,3,4-tetramethyl-2H-pyrazolo[3,4-d]pyridazin-7-amine]
500 to 1000 nM	500 to 5000 nM	CNCCC(Oc1cccc(-n2nc3c(N4CC(OC)C4)nnc(C)c3c2C)c1)c1ccccc1F (centres unmarked) [Example 33, 3-(2-fluorophenyl)-3-(3-(7-(3-methoxyazetidin-1-yl)-3,4-dimethyl-2H-pyrazolo[3,4-d]pyridazin-2-yl)phenoxy)-N-methylpropan-1-amine]
100 to 500 nM	500 to 5000 nM	CNCCC(Oc1cccc(-n2nc3c(N(C)C)nnc(C)c3c2C)c1)c1ccccc1OC (centres unmarked) [Example 36, 2-(3-(1-(2-methoxyphenyl)-3-(methylamino)propoxy)phenyl)-N,N,3,4-tetramethyl-2H-pyrazolo[3,4-d]pyridazin-7-amine]
≥ 1000 nM	≥ 5000 nM	Cc1nnc(N(C)C)c2nn(-c3cccc(OC(Cc4ccccc4)CN(C)Cc4ccccc4)c3)c(C)c12 (centres unmarked) [Example 44, 2-(3-((1-(benzyl(methyl)amino)-3-phenylpropan-2-yl)oxy)phenyl)-N,N,3,4-tetramethyl-2H-pyrazolo[3,4-d]pyridazin-7-amine]
100 to 500 nM	≥ 5000 nM	CNCC[C@H](Oc1cccc(-n2c(C)c3c(C)nnc(C)c3c2C)c1)c1cccc(F)c1 [Example 68, (S)-3-(3-Fluorophenyl)-N-methyl-3-(3-(1,4,5,7-tetramethyl-6H-pyrrolo[3,4-d]pyridazin-6-yl)phenoxy)propan-1-amine]
< 100 nM	500 to 5000 nM	CNCC(Oc1cccc(-n2nc3c(N(C)C)nnc(C)c3c2C)c1)c1cccc(F)c1 (centres unmarked) [Example 43, 2-(3-(1-(3-fluorophenyl)-2-(methylamino)ethoxy)phenyl)-N,N,3,4-tetramethyl-2H-pyrazolo[3,4-d]pyridazin-7-amine]

Compound	Ki [1]	Ki [2]
CNCCCC(Oc1cccc(-n2nc3c(N(C)C)nnc(C)c3c2C)c1)c1ccccc1 (centres unmarked) [Example 6, N,N,3,4-tetramethyl-2-(3-(4-(methylamino)-1-phenylbutoxy)phenyl)-2H-pyrazolo[3,4-d]pyridazin-7-amine]	100 to 500 nM	500 to 5000 nM
